This is an account of results in ChEMBL document CHEMBL1156881, “Inhibition of monoamine oxidase by 8-benzyloxycaffeine analogues” (Bioorg Med Chem, 2010).

As usually defined, the IC50 is the midpoint of a concentration-inhibition curve. By Ki is commonly meant the dissociation constant of the complex between target and ligand, obtained from inhibition or displacement.

Structures are written as SMILES. Calls of active or inactive are those of the source. No cut-off for these calls is given here.

The species entered for one series is Homo sapiens. In words: Selectivity for human recombinant MAOA over human recombinant MAOB.
For series [1], the target named is T1, Amine oxidase [flavin-containing] B (Homo sapiens, UniProt P27338).
T1 sequence (P27338 whole entry): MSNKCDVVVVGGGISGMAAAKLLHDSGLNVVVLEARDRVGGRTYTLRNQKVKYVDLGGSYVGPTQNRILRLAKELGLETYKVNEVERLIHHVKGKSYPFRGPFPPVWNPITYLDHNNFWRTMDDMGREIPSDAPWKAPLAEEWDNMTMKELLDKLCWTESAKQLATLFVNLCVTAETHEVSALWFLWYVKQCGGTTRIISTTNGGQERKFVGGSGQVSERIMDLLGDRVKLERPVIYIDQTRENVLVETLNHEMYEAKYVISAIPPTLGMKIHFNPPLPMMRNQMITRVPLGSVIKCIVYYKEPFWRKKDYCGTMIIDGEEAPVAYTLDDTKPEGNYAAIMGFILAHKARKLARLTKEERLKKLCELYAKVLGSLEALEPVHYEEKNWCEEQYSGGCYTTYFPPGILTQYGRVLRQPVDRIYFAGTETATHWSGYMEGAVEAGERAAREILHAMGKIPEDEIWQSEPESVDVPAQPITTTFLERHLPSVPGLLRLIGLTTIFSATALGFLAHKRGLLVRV
Description: Inhibition of human recombinant MAOB assessed as 4-hydroxyquinoline formation by fluorimetry.

Series [2] has as its target T2, Amine oxidase [flavin-containing] A (Homo sapiens, UniProt P21397).
T2 sequence (P21397 whole entry): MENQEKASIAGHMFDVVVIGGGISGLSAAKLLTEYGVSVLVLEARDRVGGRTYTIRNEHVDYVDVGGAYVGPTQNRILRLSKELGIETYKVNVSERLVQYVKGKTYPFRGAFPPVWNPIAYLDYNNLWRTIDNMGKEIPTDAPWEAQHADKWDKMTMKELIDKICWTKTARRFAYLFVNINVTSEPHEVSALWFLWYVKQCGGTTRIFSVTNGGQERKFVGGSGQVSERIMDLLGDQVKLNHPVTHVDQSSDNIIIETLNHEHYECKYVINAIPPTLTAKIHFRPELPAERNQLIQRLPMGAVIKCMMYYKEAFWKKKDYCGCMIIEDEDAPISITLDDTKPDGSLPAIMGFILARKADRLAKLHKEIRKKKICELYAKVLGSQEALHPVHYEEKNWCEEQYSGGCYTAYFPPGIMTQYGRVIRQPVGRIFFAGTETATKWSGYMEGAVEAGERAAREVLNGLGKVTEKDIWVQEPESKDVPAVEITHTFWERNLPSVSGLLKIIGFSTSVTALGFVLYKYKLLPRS
Description: Inhibition of human recombinant MAOA assessed as 4-hydroxyquinoline formation by fluorimetry.

A short description of series [3]: Inhibition of MAOB in baboon liver mitochondria assessed as MMDP+ production by spectrophotometry. On the set-up: species or system Papio hamadryas.
The target of series [4] is T1, Amine oxidase [flavin-containing] B. In words: Reversible inhibition of human recombinant MAOB at 0.23 uM assessed as 4-hydroxyquinoline formation by fluorimetry.
In series [5] the target is T2, Amine oxidase [flavin-containing] A. Description: Reversible inhibition of human recombinant MAOA at 1.31 uM assessed as 4-hydroxyquinoline formation by fluorimetry.
For series [6], the species on record is Papio hamadryas. Description: Reversible inhibition of MAOB in baboon liver mitochondria at 0.28 uM assessed as MMDP+ production by spectrophotometry.
Series [7] addresses T2, Amine oxidase [flavin-containing] A. Description: Competitive inhibition of human recombinant MAOA by Lineweaver-Burke plot.
Series [8] deals with T1, Amine oxidase [flavin-containing] B. Description: Competitive inhibition of human recombinant MAOB by Lineweaver-Burke plot.
The target of series [9] is T2, Amine oxidase [flavin-containing] A. Description: Reversible inhibition of human recombinant MAOA assessed as 4-hydroxyquinoline formation by fluorimetry.
The species named for series [10] is Papio hamadryas. Description: Competitive inhibition of MAOB in baboon liver mitochondria by Lineweaver-Burke plot.

On to `Cc1cccc(COc2nc3c(c(=O)n(C)c(=O)n3C)n2C)c1`, for which the Ratio Ki in the series listed under Homo sapiens came to 1.29. Moreover, the values for the IC50 in [1], in series [2] and in [3] were 397 nM, 546 nM and 698 nM, respectively. The Ki in series [1] is 140 nM; in series [2], 180 nM; in series [3] it was 400 nM.
On to `Cn1c(=O)c2c(nc(OCc3cccc(Cl)c3)n2C)n(C)c1=O`, for which the Ratio Ki in the series filed under Homo sapiens was 0.16. Further, the figures for the IC50 in series [1], in series [2] and in [3] were 666 nM, 107 nM and 120 nM, respectively. Moreover, the Ki in series [1] was found to be 230 nM; in series [2] it was 36 nM; in [3], 69 nM. For the same compound, the “inhibition (INH)” value in series [4] and in [5] was “Active” in each case. Also, the inhibition result in the series filed under Papio hamadryas [6] is “Active”.
As for `COc1cccc(COc2nc3c(c(=O)n(C)c(=O)n3C)n2C)c1`, the Ratio Ki in the series listed under Homo sapiens amounted to 0.31. Moreover, the results for the IC50 in [1], in series [2] and in series [3] were 3150 nM, 1010 nM and 1590 nM, respectively. Moreover, the Ki came out at 1100 nM in [1], 340 nM in [2] and 920 nM in [3].
Consider `Cn1c(=O)c2c(nc(OCc3cccc(C(F)(F)F)c3)n2C)n(C)c1=O`, for which the Ratio Ki in the series listed under Homo sapiens is 0.039. Also, the “inhibition (INH)” value in series [7], in series [8] and in series [9] was “Active” each time. Moreover, the IC50 in [1] was 3720 nM; in [2], 152 nM; in [3], 112 nM. The results for the Ki in [1], in series [2] and in [3] were 1300 nM, 51 nM and 65 nM, respectively. Besides, the inhibition entry in the series filed under Papio hamadryas [10] is “Active”.
In the case of `Cn1c(=O)c2c(nc(OCc3cccc(Br)c3)n2C)n(C)c1=O`, the Ratio Ki in the series listed under Homo sapiens was determined as 0.069. In addition, the results for the IC50 in [1], in [2] and in series [3] were 941 nM, 68 nM and 113 nM, respectively. Moreover, the values for the Ki in series [1], in series [2] and in series [3] were 330 nM, 23 nM and 65 nM, respectively.
For `Cn1c(=O)c2c(nc(OCc3ccccc3)n2C)n(C)c1=O`, the Ratio Ki in the series filed under Homo sapiens is 1.37. Moreover, the IC50 turned out to be 1240 nM in series [1], 1770 nM in [2] and 2490 nM in series [3]. The Ki in series [1] was 430 nM; in series [2], 590 nM; in [3], 1440 nM.
With `Cn1c(=O)c2c(nc(OCc3cccc(F)c3)n2C)n(C)c1=O`, the Ratio Ki in the series listed under Homo sapiens was 0.49. Besides, the IC50 in series [1] worked out at 1070 nM; in series [2], 542 nM; in series [3] it was 534 nM. In addition, the Ki in series [1] was 370 nM; in [2], 180 nM; in series [3], 310 nM.
